Laboratory results published in patent publication US6667307B2, “Sulfonylalkanoylamino hydroxyethylamino sulfonamide retroviral protease inhibitors” (G.D. Searle & Co., priority 1995, dated 2003).

Tests used:
[1] = target: T1, HIV protease (Human immunodeficiency virus type 1 group M subtype B, UniProt P04585); assay: HIV protease enzyme assay (fluorescence, peptide substrate); type: biochemical; conditions: HIV protease 12.3 nanomolar, substrate 80 μM, pH 6.4, ambient temperature
T1 construct: final enzyme concentration of 12.3 nanomolar, based on a molecular weight of 10,780
Excerpt: The compounds of the present invention are effective HIV protease inhibitors. Utilizing an enzyme assay as described below, the compounds set forth in the examples herein disclosed inhibited the HIV enzyme. The preferred compounds of the present invention and their calculated IC50 (inhibiting concentration 50%, i.e., the concentration at which the inhibitor compound reduces enzyme activity by 50%) values are shown in Table 9. The enzyme method is described below. The substrate is 2-Ile-Nle-Phe(p-NO2)-Gln-ArgNH2. The positive control is MVT-101 (Miller, M. et al, Science, 2, 1149 (1989)) The assay conditions are as follows:
20 mM sodium phosphate, pH 6.4
The above described substrate is dissolved in DMSO, then diluted 10 fold in assay buffer. Final substrate concentration in the assay is 80 μM. HIV protease is diluted in the assay buffer to a final enzyme concentration of 12.3 nanomolar, based on a molecular weight of 10,780.
The final concentration of DMSO is 14% and the final concentration of glycerol is 18%. The test compound is dissolved in DMSO and diluted in DMSO to 10× the test concentration; 10 μl of the enzyme preparation is added, the materials mixed and then the mixture is incubated at ambient temperature for 15 minutes. The enzyme reaction is initiated by the addition of 40 μl of substrate. The increase in fluorescence is monitored at 4 time points (0, 8, 16 and 24 minutes) at ambient temperature. Each assay is carried out in duplicate wells.

[2] = system: HIV-1 in CEM cells; assay: CEM cell assay: HIV inhibition in acutely infected cells (tetrazolium/MTT colorimetric); type: cell-based; conditions: Human immunodeficiency virus 1, CCRF-CEM, 168 h, CEM cells acutely infected with HIV-1, 7 days, MTT readout
Protocol: The effectiveness of various compounds were determined in the above-described enzyme assay and in a CEM cell assay. The HIV inhibition assay method of acutely infected cell infected cells is an automated tetrazolium based colorimetric assay essentially that reported by Pauwles et al, J. Virol. Methods, 20 ≡, 309-321 (1988). Assays were performed in 96-well tissue culture plates. CEM cells, a CD4^+ cell line. were grown in RPMI-1640 medium (Gibco) supplemented with a 10% fetal calf serum and were then treated with polybrene (2 μg/ml). An 80 μl volume of medium containing 1×10^4 cells was dispensed into each well of the tissue culture plate. To each well was added a 100 μl volume of test compound dissolved in tissue culture medium (or medium without test compound as a control) to achieve the desired final concentration and the cells were incubated at 37° C. for 1 hour. A frozen culture of HIV-1 was diluted in culture medium to a concentration of 5×10^4 TCID50 per ml (TCID50=the dose of virus that infects 50% of cells in tissue culture), and a 20 μL volume of the virus sample (containing 1000 TCID50 of virus) was added to wells containing test compound and to wells containing only medium (infected control cells). Several wells received culture medium without virus (uninfected control cells). Likewise, the intrinsic toxicity of the test compound was determined by adding medium without virus to several wells containing test compound. In summary, the tissue culture plates contained the following experiments: [table] In experiments 2 and 4 the final concentrations of test compounds were 1, 10, 100 and 500 μg/ml. Either azidothymidine (AZT) or dideoxyinosine (ddI) was included as a positive drug control. […] DMSO was added to all control wells at an appropriate concentration. Following the addition of virus, cells were incubated at 37° C. in a humidified, 5% CO2 atmosphere for 7 days. Test compounds could be added on days 0, 2 and 5 if desired. On day 7, post-infection, the cells in each well were resuspended and a 100 μl sample of each cell suspension was removed for assay. A 20 μL volume of a 5 mg/ml solution of 3-(4,5-dimethylthiazol-2-yl)-2,5-diphenyltetrazolium bromide (MTT) was added to each 100 μL cell suspension, and the cells were incubated for 4 hours at […] in a 5% CO2 environment. […] To each sample was added 100 μl of 10% sodium dodecylsulfate in 0.01 N HCl to lyse the cells, and samples were incubated overnight. The absorbance at 590 nm was determined for each sample using a Molecular Devices microplate reader. Absorbance values for each set of wells is compared to assess viral control infection, uninfected control cell response as well as test compound by cytotoxicity and antiviral efficacy.

Work on `CC(C)CN(C[C@@H](O)[C@H](Cc1ccccc1)NC(=O)[C@H](C)C[S+](C)[O-])S(=O)(=O)c1ccc2c(c1)OCO2` (stereo partly drawn) [Entry 5] yielded an IC50 [1] of 2 nM and an EC50 [2] of 52 nM.

With `CC(C)CN(C[C@@H](O)[C@H](Cc1ccccc1)NC(=O)[C@H](C)CS(C)(=O)=O)S(=O)(=O)c1ccc2c(c1)OCO2` [Example 47, N-[2R-hydroxy-3-[(2-methylpropyl)[(1,3-benzodioxol-5-yl)sulfonyl]amino]-1S-(phenylmethyl)propyl]-2S-methyl-3-(methylsulfonyl)propanamide] the melting point was 131.8 to 133.8 °C.

For `CC(C)CN(C[C@@H](O)[C@H](Cc1ccccc1)NC(=O)[C@H](C)CS(C)(=O)=O)S(=O)(=O)c1ccc2c(c1)OCCO2` [Entry 4], the IC50 [1] was 2 nM and the EC50 [2] was 12 nM.

In the case of `CC(C)CN(C[C@@H](O)[C@H](Cc1ccccc1)NC(=O)[C@H](C)CS(C)(=O)=O)S(=O)(=O)c1ccc2c(c1)CCO2` [Entry 2], the IC50 [1] is reported as 2 nM and the EC50 [2] is reported as 28 nM.

In the case of `CC(C)CN(C[C@@H](O)[C@H](Cc1ccccc1)NC(=O)[C@H](C)C[S+](C)[O-])S(=O)(=O)c1ccc2c(c1)OCO2` (single isomer, unassigned) [Entry 6], the IC50 [1] is reported as 7 nM.

`CC(C)CN(C[C@@H](O)[C@H](Cc1ccccc1)NC(=O)[C@H](C)CS(C)(=O)=O)S(=O)(=O)c1ccc2ncsc2c1` [Entry 3] showed an IC50 [1] of 3 nM and an EC50 [2] of 26 nM.

With `CC(C)CN(C[C@@H](O)[C@H](Cc1ccccc1)NC(=O)[C@H](C)CS(C)(=O)=O)S(=O)(=O)c1ccc2c(c1)OCO2` [Entry 1] the IC50 [1] was 2 nM and the EC50 [2] was 20 nM.
